Test results from US20230064983A1 (priority 2020, published 2023).
pIC50: −log10 of the molar value. Several values for one entry are separate records, joined by “and”; a condition that tells them apart may be missing. Equal entries are not always repeated.

Tests used:
[1] = molecular target: Ba/F3-ERBB2-A775_G776insYVMA cells (Homo sapiens, UniProt P04626, DUP772-775, cells depend on it); assay: Ba/F3 cell survival assay, ERBB2 A775_G776insYVMA; assay type: cell-based; conditions: Table 9; read-out: BA/F3 (ERBB2 A775_G776 insYVMA) IC50
[2] = molecular target: Ba/F3-EGFR-N771_P772insH cells (Homo sapiens, UniProt P00533, INS771H, cells depend on it); assay: Ba/F3 cell survival assay, EGFR N771_P772insH; assay type: cell-based; conditions: EGFR Exon20 insertion mutations; Table 6; read-out: BA/F3 (EGFR N771_P772insH) IC50
[3] = tested on: PC9 cells; assay: PC9 cell proliferation assay (EGFRex19del); assay type: cell-based; conditions: Homo sapiens, PC-9, 72 h, read-out: PC9 IC50
Protocol: Cellular Data Description (PC9 cells, EGFRex19del)
PC9 cells were purchased from Tokyo Medical College. 400 PC9 cells per well were seeded in growth medium (DMEM, 10% FCS) in a 384-well plate (CORNING #3571). Seed reference plate for time zero determination on the same day. All plates were incubated overnight at 37° C. After 24 hours, test compound were added in 7-step dilution using HP Compound printer and incubated at 37° C. for 72 h. After 3 days, 30 μL/well CTG solution (Promega Cell Titer Glo solution; catalog #G755B and G756B) were added to each well, incubated for 30 minutes and the plate were read on PheraStar. Proliferation is calculated after subtracting time zero luminescence values from day 4 values and comparing to untreated wells.
The IC50 values were determined using the four parameter fit.

[4] = molecular target: Ba/F3-EGFR-WT cells (Homo sapiens, UniProt P00533); assay: Ba/F3 cell survival assay, wild type EGFR; assay type: cell-based; conditions: Cell Titer-Glo, 48 h, with 10 ng/mL EGF; Table 4; read-out: BA/F3 (wild type) IC50
Ba/F3-EGFR-WT cells, sequence (P00533 whole entry, looked up, stated change not applied): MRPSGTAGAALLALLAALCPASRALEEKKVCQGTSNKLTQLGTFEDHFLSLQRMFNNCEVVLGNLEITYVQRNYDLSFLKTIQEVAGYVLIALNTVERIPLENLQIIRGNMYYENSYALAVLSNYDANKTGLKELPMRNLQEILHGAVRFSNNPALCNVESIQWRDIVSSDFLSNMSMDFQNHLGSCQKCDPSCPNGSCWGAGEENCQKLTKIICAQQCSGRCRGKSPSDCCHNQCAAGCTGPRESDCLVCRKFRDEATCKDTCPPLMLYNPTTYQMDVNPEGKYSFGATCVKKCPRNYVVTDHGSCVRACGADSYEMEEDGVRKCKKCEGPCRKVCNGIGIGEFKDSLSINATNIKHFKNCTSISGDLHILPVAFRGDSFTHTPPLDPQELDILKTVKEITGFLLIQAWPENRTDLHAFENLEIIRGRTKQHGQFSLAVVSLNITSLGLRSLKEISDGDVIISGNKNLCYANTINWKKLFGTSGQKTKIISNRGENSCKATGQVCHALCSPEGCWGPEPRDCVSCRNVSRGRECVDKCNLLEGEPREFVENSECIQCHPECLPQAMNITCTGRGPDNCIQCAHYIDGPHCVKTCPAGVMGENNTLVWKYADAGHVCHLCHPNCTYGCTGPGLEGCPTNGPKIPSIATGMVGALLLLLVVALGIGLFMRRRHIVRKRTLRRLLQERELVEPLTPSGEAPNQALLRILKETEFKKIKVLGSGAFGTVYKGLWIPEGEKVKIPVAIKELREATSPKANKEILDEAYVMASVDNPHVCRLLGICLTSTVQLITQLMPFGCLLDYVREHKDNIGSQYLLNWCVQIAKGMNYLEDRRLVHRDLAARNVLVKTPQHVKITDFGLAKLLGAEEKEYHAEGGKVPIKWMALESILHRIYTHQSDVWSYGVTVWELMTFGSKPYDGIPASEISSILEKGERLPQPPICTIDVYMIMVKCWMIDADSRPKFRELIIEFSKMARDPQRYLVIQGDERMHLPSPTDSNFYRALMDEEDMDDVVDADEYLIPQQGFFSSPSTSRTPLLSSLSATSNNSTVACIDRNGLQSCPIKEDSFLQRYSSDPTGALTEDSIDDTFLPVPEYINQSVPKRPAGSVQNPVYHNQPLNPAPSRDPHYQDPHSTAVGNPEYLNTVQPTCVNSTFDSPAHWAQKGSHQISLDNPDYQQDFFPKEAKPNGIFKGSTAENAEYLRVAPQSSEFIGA

[5] = molecular target: Ba/F3-EGFR L861Q cells (Homo sapiens, UniProt P00533, L861Q, cells depend on it); assay: Ba/F3 cell survival assay, EGFR L861Q; assay type: cell-based; conditions: classical activating and rare EGFR mutations; Table 7; read-out: BA/F3 (EGFR L861Q) IC50
Ba/F3-EGFR L861Q cells, sequence (P00533 whole entry L861Q): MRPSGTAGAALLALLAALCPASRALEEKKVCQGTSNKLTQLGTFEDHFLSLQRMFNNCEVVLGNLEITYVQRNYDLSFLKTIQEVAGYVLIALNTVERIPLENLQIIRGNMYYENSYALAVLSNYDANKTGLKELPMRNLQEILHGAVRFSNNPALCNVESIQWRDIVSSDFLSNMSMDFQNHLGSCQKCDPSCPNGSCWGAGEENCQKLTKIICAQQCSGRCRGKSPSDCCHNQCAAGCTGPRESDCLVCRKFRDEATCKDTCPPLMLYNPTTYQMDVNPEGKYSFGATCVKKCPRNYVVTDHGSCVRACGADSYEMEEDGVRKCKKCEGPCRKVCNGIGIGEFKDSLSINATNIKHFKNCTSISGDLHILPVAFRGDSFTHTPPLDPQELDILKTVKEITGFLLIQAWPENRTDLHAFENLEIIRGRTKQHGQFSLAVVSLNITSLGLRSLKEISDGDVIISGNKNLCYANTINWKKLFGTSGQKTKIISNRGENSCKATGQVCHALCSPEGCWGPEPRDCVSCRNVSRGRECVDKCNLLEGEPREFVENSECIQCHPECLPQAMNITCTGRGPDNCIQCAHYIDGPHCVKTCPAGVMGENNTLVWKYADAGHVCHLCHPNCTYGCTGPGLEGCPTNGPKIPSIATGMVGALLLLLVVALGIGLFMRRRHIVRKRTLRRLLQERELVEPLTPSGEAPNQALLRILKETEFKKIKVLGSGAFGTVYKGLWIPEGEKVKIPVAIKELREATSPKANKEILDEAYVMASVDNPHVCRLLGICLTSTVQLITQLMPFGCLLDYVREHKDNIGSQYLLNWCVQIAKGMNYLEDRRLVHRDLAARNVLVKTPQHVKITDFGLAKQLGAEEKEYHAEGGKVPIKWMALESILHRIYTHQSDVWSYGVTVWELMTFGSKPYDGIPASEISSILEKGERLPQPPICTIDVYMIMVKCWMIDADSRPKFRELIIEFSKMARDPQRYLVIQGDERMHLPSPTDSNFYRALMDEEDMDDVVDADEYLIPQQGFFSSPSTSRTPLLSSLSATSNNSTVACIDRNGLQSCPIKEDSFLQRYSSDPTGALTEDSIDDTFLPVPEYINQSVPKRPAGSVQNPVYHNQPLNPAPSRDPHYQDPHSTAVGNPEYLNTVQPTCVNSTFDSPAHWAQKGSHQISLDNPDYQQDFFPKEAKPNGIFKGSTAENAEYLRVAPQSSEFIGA

[6] = molecular target: Ba/F3-EGFR-E746_A750del C797S cells (Homo sapiens, UniProt P00533, DEL746-750/C797S, cells depend on it); assay: Ba/F3 cell survival assay, EGFR E746_A750del C797S; assay type: cell-based; conditions: aquired resistance space; Table 8; read-out: BA/F3 (EGFR E746_A750del C797S) IC50
Ba/F3-EGFR-E746_A750del C797S cells, sequence (P00533 with tags, fused parts or gaps DEL746-750/C797S): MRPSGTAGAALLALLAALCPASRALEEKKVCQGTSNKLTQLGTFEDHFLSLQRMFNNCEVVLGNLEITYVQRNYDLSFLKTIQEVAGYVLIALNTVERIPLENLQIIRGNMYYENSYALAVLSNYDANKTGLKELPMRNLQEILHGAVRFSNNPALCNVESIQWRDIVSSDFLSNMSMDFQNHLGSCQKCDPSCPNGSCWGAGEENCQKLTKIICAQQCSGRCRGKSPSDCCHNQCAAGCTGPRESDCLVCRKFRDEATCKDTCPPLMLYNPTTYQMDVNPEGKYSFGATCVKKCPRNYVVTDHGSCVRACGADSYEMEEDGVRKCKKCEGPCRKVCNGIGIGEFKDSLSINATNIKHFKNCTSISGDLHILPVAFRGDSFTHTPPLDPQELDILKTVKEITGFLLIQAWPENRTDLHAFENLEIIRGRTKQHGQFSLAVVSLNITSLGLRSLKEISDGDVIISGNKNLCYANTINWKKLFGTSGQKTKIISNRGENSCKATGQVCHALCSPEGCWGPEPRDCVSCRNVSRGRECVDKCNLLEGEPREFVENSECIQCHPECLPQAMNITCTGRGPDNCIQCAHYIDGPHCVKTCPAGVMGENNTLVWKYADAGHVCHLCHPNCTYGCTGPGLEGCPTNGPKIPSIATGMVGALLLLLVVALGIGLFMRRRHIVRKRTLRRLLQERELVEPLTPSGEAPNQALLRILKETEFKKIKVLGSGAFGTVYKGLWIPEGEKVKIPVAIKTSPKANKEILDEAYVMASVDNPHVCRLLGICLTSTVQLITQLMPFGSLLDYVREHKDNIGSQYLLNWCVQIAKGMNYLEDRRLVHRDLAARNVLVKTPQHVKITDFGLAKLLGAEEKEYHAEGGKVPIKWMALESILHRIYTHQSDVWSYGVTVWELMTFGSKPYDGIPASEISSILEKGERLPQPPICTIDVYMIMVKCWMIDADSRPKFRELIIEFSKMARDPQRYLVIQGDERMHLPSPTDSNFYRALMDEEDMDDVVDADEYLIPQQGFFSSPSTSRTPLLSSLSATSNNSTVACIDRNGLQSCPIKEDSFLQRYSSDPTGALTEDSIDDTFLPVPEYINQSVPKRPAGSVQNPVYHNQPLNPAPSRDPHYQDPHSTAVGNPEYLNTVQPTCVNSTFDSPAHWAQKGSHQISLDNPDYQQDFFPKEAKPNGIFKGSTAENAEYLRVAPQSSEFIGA

[7] = molecular target: Ba/F3-EGFR-D770_N771insNPG cells (Homo sapiens, UniProt P00533, INS772GNP, cells depend on it); assay: Ba/F3 cell survival assay, EGFR D770_N771insNPG; assay type: cell-based; conditions: EGFR Exon20 insertion mutations; Table 6; read-out: BA/F3 (insNPG) IC50
Ba/F3-EGFR-D770_N771insNPG cells, sequence (P00533 with tags, fused parts or gaps INS772GNP): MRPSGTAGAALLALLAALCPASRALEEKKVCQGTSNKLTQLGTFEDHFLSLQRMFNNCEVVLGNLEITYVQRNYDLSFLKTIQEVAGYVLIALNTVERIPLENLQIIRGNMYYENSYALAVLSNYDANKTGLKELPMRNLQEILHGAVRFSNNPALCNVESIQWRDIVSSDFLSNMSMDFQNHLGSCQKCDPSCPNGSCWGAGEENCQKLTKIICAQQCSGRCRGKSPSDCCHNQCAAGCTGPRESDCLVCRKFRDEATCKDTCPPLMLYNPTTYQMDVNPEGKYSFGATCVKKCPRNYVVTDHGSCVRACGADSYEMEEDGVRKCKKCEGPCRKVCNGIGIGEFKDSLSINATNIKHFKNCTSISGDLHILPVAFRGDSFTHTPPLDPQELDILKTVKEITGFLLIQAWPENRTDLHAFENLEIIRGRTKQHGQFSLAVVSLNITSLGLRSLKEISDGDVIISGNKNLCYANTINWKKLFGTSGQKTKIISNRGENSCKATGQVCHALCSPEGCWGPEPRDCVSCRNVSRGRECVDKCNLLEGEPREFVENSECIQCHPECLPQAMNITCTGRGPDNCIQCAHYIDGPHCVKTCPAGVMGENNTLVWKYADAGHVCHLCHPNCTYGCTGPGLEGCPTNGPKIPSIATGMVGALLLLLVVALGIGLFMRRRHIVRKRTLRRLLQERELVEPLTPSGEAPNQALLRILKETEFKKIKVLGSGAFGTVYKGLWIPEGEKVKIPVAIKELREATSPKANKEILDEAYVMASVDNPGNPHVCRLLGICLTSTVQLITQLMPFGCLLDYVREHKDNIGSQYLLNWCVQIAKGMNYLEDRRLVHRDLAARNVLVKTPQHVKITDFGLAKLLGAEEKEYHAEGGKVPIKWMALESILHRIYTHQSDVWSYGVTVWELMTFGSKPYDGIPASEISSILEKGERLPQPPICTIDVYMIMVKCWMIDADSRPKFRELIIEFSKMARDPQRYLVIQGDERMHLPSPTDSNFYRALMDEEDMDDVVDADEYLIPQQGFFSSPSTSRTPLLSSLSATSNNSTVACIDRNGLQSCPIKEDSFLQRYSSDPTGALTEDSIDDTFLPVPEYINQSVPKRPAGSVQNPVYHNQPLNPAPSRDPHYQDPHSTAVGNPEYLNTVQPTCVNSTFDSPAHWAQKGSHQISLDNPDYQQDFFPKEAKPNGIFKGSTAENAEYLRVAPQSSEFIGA

[8] = molecular target: Ba/F3-EGFR-V769_D770insASV cells (Homo sapiens, UniProt P00533, DUP767-769, cells depend on it); assay: Ba/F3 cell survival assay, EGFR V769_D770insASV; assay type: cell-based; conditions: EGFR Exon20 insertion mutations; Table 6; read-out: BA/F3 (ASV) IC50
[9] = molecular target: T1, Bub1 (Homo sapiens, UniProt O43683); assay: Bub1 high ATP kinase assay (TR-FRET); assay type: biochemical; conditions: Bub1 high ATP (2 mM) IC50, TR-FRET, 2 mM ATP; Table 3
T1 construct: catalytic domain of human Bub1 (amino acids 704-1085); His6 (N); made in house; host or cells: insect cells (Hi5)
Outline: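 Enzyme was His6-tagged human Bub1 catalytic domain (aa 704-1085) from Hi5 insect cells, typically about 200 ng/ml, with a biotinylated peptide substrate at high ATP. Reaction ran 60 min at 22 °C, then was stopped with EDTA. Phosphopeptide was detected by TR-FRET (anti-phosphoserine antibody, Eu-labelled anti-mouse IgG, streptavidin-XL665), read as the 665/620 nm emission ratio.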

[10] = molecular target: Ba/F3-EGFR-D770_N771insSVD cells (Homo sapiens, UniProt P00533, DUP768-770, cells depend on it); assay: Ba/F3 cell survival assay, EGFR D770_N771insSVD; assay type: cell-based; conditions: Cell Titer-Glo, 48 h, without IL-3; Table 4; read-out: BA/F3 (insSVD) IC50
[11] = molecular target: T2, EGFR with insertion SVD between D770 and N771 (mutEGFR D770_N771insSVD) (Homo sapiens, UniProt P00533, DUP768-770); assay: Exon20-Mutant-EGFR(D770_N771insSVD) kinase assay (TR-FRET); assay type: biochemical; conditions: 2 mM ATP, Table 2
T2 construct: amino acids R669 to A1210; made in house; host or cells: Sf9 insect cells (baculovirus)

[12] = molecular target: Ba/F3-EGFR-L858R cells (Homo sapiens, UniProt P00533, L858R, cells depend on it); assay: Ba/F3 cell survival assay, EGFR L858R; assay type: cell-based; conditions: classical activating and rare EGFR mutations; Table 7; read-out: BA/F3 (EGFR L858R) IC50

SMILES | GI50 [1] [nM] | GI50 [2] [nM] | pIC50 [3] | GI50 [4] [nM] | GI50 [5] [nM] | GI50 [6] [nM] | GI50 [7] [nM] | GI50 [8] [nM] | pIC50 [9] | GI50 [10] [nM] | mutEGFR (D770_N771insSVD) kinase assay IC50 [11] [nM] | GI50 [12] [nM]
COc1c(Cl)cccc1Nc1c(-c2ccncc2OC[C@@H]2CCCO2)[nH]c2c1C(=O)NC1(CC1)C2 [Example 113, 3′-(3-chloro-2-methoxyanilino)-2′-(3-{[(2S)-oxolan-2-yl]methoxy}pyridin-4-yl)-1′,7′-dihydrospiro[cyclopropane-1,6′-pyrrolo[3,2-c]pyridin]-4′(5′H)-one] | 22.2 | 14.3 | 8.19 | 849 | 45 | 1.1 | 24.9 | 26 | 6.12 | 23.7 | 0.201 | 3.71
COc1c(Cl)cccc1Nc1c(-c2ccncc2OCCC2CCCCO2)[nH]c2c1C(=O)N[C@H](C)C2 (single isomer, unassigned) [Example 87] | 16.2 | 21.6 | 8.74 | 421 | 33.4 | 0.804 | 15 | 13.2 | 4.72 and < 4.70 | 15 | 0.535 | 1.29
Cc1c(Cl)cccc1Nc1c(-c2ccncc2OCC2COCCO2)[nH]c2c1C(=O)NCC2C (single isomer, unassigned) [Example 67, 3-(3-chloro-2-methyl-anilino)-2-[3-(1,4-dioxan-2-ylmethoxy)-4-pyridyl]-7-methyl-1,5,6,7-tetrahydropyrrolo[3,2-c]pyridin-4-one] | 29.2 | 18.3 | 8.39 | 1150 | 53.6 | 0.581 | 13.5 | 40.3 | 5.00 | 27.1 | 0.252 | 3.16
COc1c(Cl)cccc1Nc1c(-c2ccncc2OCCC(C)OC)[nH]c2c1C(=O)N[C@H](C)C2 (single isomer, unassigned) [Example 121] | 12.8 | 4.49 | 8.74 | 267 | 11.2 | 0.384 | 12.8 | 10.1 | 5.74 | 8.81 | 0.188 | 1.17
COCC(C)Oc1cnccc1-c1[nH]c2c(c1Nc1cccc(Cl)c1OC)C(=O)N[C@@H]1CCC[C@H]21 (single isomer, unassigned) [Example 51] | 15.2 | 6.89 | 8.76 | 412 | 14.9 | 0.564 | 11.4 | 12.8 | 5.15 | 13.6 | 0.305 | 1.32
COc1c(Cl)cccc1Nc1c(-c2ccncc2OCC2COCCO2)[nH]c2c1C(=O)NCC2C (single isomer, unassigned) [Example 34, 3-(3-chloro-2-methoxy-anilino)-2-[3-(1,4-dioxan-2-ylmethoxy)-4-pyridyl]-7-methyl-1,5,6,7-tetrahydropyrrolo[3,2-c]pyridin-4-one] | 33.1 | 14.3 | 8.46 | 424 | 31.8 | 0.795 | 16.9 | 30.2 | < 4.70 | 20.2 | 0.175 | 2.76
